In brackets after ≈: the same amount, converted by molar mass.
What was measured:
Assay type in all cases: cell-based
A. baumannii AR 0313 = assay: microbe, parasite or virus in culture; settings: clinical isolate
Protocol: (§1) Antimicrobial susceptibility tests. Susceptibility testing was performed in biological triplicate, using the micro-dilution broth method as outlined by the Clinical and Laboratory Standards Institute. Bacteria were cultured with cation-adjusted Muller-Hinton broth (Sigma-Aldrich, Cat# 90922) in round-bottom 96-well plates (Corning, Cat# 3788). Human serum (pooled gender, 0.2 μm filtered) was purchased from BioIVT (Hicksville, NY).

K. pneumoniae AR 0066 = assay: microbe, parasite or virus in culture; settings: clinical isolate
Protocol: as §1

E. coli AR 0085 = assay: microbe, parasite or virus in culture; settings: clinical isolate
Protocol: as §1

K. pneumoniae AR 0113 = assay: microbe, parasite or virus in culture; settings: clinical isolate
Protocol: as §1

E. coli AR 0048 = assay: microbe, parasite or virus in culture; settings: clinical isolate
Protocol: as §1

A. baumannii AR 0033 = assay: microbe, parasite or virus in culture; settings: clinical isolate
Protocol: as §1

A. baumannii AR 0299 = assay: microbe, parasite or virus in culture; settings: clinical isolate
Protocol: as §1

K. pneumoniae AR 0560 = assay: microbe, parasite or virus in culture; settings: clinical isolate
Protocol: as §1

A. baumannii AR 0273 = assay: microbe, parasite or virus in culture; settings: clinical isolate
Protocol: as §1

K. pneumoniae BAA 2472 = assay: microbe, parasite or virus in culture; settings: clinical isolate
Protocol: (§2) The compounds synthesized, shown in Table 1, were evaluated against Gram-positive and Gram-negative reference strains (S. aureus 29213 and E. coli MG1655, respectively), as well as an efflux deficient E. coli strain (ΔtolC, JW5503).
(§3) Bacterial strains. S. aureus ATCC 29213, E. coli MG1655, E. coli BAA-2340, E. coli BAA-2469, E. coli BAA-2471, E. cloacae BAA-2341, E. cloacae BAA-2468, K. pneumoniae BAA-1705, K. pneumoniae BAA-2342, K. pneumoniae BAA-2470, K. pneumoniae BAA-2472, and K. pneumoniae BAA-2473 were obtained from ATCC. E. coli JW5503 and E. coli JW3596 were obtained from the KEIO Collection. E. cloacae ATCC 29893 was provided by W. van der Donk (UIUC). E. coli AR-0346, E. coli AR-0349, E. coli AR-0493, E. coli AR-0495, and K. pneumoniae AR-0347 were obtained from the CDC and FDA AR Isolate Bank. E. coli F20987, E. coli M66623, E. cloacae S28901.1, K. pneumoniae M14723, K. pneumoniae M67198, K. pneumoniae M67297, K. pneumoniae S20595, K. pneumoniae S47889, A. baumannii W41979, A. baumannii F19521, A. baumannii M13100, and A. baumannii WO22 were obtained from the University of Illinois Chicago Medical School. A. baumannii KB304, A. baumannii KB343, and A. baumannii KB357 were provided by J. Quale.
as §1

E. coli ΔtolC (JW5503) = settings: for MIC E. coli ΔtolC: efflux deficient E. coli ΔtolC; for % @ 0.5 (in brackets after MIC): 0.5 μg/mL
Protocol: as §2, §3, §1

S. aureus ATCC 29213 = assay: Antimicrobial susceptibility test (MIC), micro-dilution broth; settings: for MIC S. aureus 29213: S. aureus ATCC 29213
Text: as §3, §1

E. coli MG1655 = assay: Antimicrobial susceptibility test (MIC); settings: for % @ 32 (in brackets after MIC): E. coli MG1655, 32 μg/mL
Text: as §3, §1

Compound	MIC E. coli ΔtolC (E. coli ΔtolC (JW5503)) [µg/mL]	MIC S. aureus 29213 (S. aureus ATCC 29213) [µg/mL]	MIC E. coli MG1655 (E. coli MG1655) [µg/mL]	also measured
Cc1c(CN(C)C(=O)/C=C/c2ccc3c(c2)CCC(N)C(=O)N3)oc2ccccc12 (single isomer, unassigned) [Isomer 1]				MIC A. baumannii AR 0313 (A. baumannii AR 0313): >32 µg/mL; MIC K. pneumoniae AR 0066 (K. pneumoniae AR 0066): >32 µg/mL; MIC E. coli AR 0085 (E. coli AR 0085): >32 µg/mL; MIC K. pneumoniae AR 0113 (K. pneumoniae AR 0113): >32 µg/mL; MIC E. coli AR 0048 (E. coli AR 0048): >32 µg/mL; MIC A. baumannii AR 0033 (A. baumannii AR 0033): >32 µg/mL; MIC A. baumannii AR 0299 (A. baumannii AR 0299): >32 µg/mL; MIC K. pneumoniae AR 0560 (K. pneumoniae AR 0560): >32 µg/mL; MIC A. baumannii AR 0273 (A. baumannii AR 0273): >32 µg/mL; MIC K. pneumoniae BAA 2472 (K. pneumoniae BAA 2472): >32 µg/mL
NC1Cc2cc(C=CC(=O)N3CC4C=C(c5ccccc5)CC4C3)cnc2NC1=O (mixture of isomers)	0.062	0.062	16	
Cc1c(CN(C)C(=O)/C=C/c2cnc3c(c2)CCC(N)C(=O)N3)oc2ccccc12 (single isomer, unassigned) [drawing 109]	> 1	0.125 to 0.250	> 32	% @ 1 (in brackets after MIC) (E. coli ΔtolC (JW5503); E. coli ΔTolC, 1 μg/mL): 50%; % @ 32 (in brackets after MIC) (E. coli MG1655): 20%
Cc1c(CN(C)C(=O)C=Cc2cnc3c(c2)CC2(CC(CN)C2)C(=O)N3)oc2ccccc12 (mixture of isomers) [(±)-7]	0.125	0.031	16	
Cc1c(CN(C)C(=O)/C=C/c2cnc3c(c2)CC(N)C(=O)N3)oc2cccc(F)c12.Cl (stereo not drawn)	0.125	0.031	8	
Cc1c(CN(C)C(=O)/C=C/c2cnc3c(c2)CCC(=O)N3)oc2ccccc12 [drawing 82, reference compound]	0.031 (≈ 0.0826 µM)	0.008 to 0.016		
Cc1c(CN(C)C(=O)/C=C/c2cnc3c(c2)CC(N)C(=O)N3)oc2cc(F)ccc12.Cl (stereo not drawn)	0.5	0.062	> 32	% @ 32 (in brackets after MIC) (E. coli MG1655): 65%
Cc1c(CN(C)C(=O)/C=C/c2cnc3c(c2)CC2(CC(CN)C2)C(=O)N3)oc2ccccc12 (stereo not drawn)				MIC A. baumannii AR 0313 (A. baumannii AR 0313): >32 µg/mL; MIC K. pneumoniae AR 0066 (K. pneumoniae AR 0066): 32 µg/mL (≈ 72 µM); MIC E. coli AR 0085 (E. coli AR 0085): 16 µg/mL (≈ 36 µM); MIC K. pneumoniae AR 0113 (K. pneumoniae AR 0113): 32 µg/mL (≈ 72 µM); MIC E. coli AR 0048 (E. coli AR 0048): 32 µg/mL (≈ 72 µM); MIC A. baumannii AR 0033 (A. baumannii AR 0033): 32 µg/mL (≈ 72 µM); MIC A. baumannii AR 0299 (A. baumannii AR 0299): >32 µg/mL; MIC K. pneumoniae AR 0560 (K. pneumoniae AR 0560): 32 µg/mL (≈ 72 µM); MIC A. baumannii AR 0273 (A. baumannii AR 0273): >32 µg/mL; MIC K. pneumoniae BAA 2472 (K. pneumoniae BAA 2472): 32 µg/mL (≈ 72 µM)
Cc1c(CN(C)C(=O)/C=C/c2cnc3c(c2)CC(NCCN)C(=O)N3)oc2ccccc12.Cl (stereo not drawn)	1	0.5	> 32	% @ 0.5 (in brackets after MIC) (E. coli ΔtolC (JW5503); E. coli ΔTolC): 50%; % @ 0.25 (in brackets after MIC) (S. aureus ATCC 29213; S. aureus ATCC 29213, 0.25 μg/mL): 80%; % @ 32 (in brackets after MIC) (E. coli MG1655): 35%
Cc1c(CN(C)C(=O)C=Cc2cnc3c(c2)CC2(CCC(CN)CC2)C(=O)N3)oc2ccccc12 (mixture of isomers) [(±)-9]	0.062	0.031	16	
Cc1c(CN(C)C(=O)/C=C/c2cnc3c(c2)CC2(CC(N)C2)C(=O)N3)oc2ccccc12 (stereo not drawn)	0.062 (≈ 0.144 µM)	0.016 (≈ 0.0372 µM)	4 (≈ 9.29 µM)	
NC1CCc2cc(C=CC(=O)N3CC4C=C(c5ccccc5)CC4C3)cnc2NC1=O (mixture of isomers)	0.062	0.031	8	
Cc1c(CN(C)C(=O)/C=C/c2cnc3c(c2)CC2(CNC2)C(=O)N3)oc2ccccc12 [drawing 106]				MIC A. baumannii AR 0313 (A. baumannii AR 0313): 16 µg/mL (≈ 38.4 µM); MIC K. pneumoniae AR 0066 (K. pneumoniae AR 0066): 8 µg/mL (≈ 19.2 µM); MIC E. coli AR 0085 (E. coli AR 0085): 4 µg/mL (≈ 9.6 µM); MIC K. pneumoniae AR 0113 (K. pneumoniae AR 0113): 16 µg/mL (≈ 38.4 µM); MIC E. coli AR 0048 (E. coli AR 0048): 8 µg/mL (≈ 19.2 µM); MIC A. baumannii AR 0033 (A. baumannii AR 0033): 8 µg/mL (≈ 19.2 µM); MIC A. baumannii AR 0299 (A. baumannii AR 0299): 16 µg/mL (≈ 38.4 µM); MIC K. pneumoniae AR 0560 (K. pneumoniae AR 0560): 16 µg/mL (≈ 38.4 µM); MIC A. baumannii AR 0273 (A. baumannii AR 0273): 16 µg/mL (≈ 38.4 µM); MIC K. pneumoniae BAA 2472 (K. pneumoniae BAA 2472): 8 µg/mL (≈ 19.2 µM)
Cc1c(CN(C)C(=O)/C=C/c2cnc3c(c2)CC(CN)C(=O)N3)oc2ccccc12.Cl (racemic)	0.125	0.031	8	
Cc1c(CN(C)C(=O)/C=C/c2cnc3c(c2)CC(N)C(=O)N3)oc2ccc(F)cc12.Cl (stereo not drawn)	1	0.125	> 32	% @ 0.5 (in brackets after MIC) (E. coli ΔtolC (JW5503); E. coli ΔTolC): 60%; % @ 0.062 (in brackets after MIC) (S. aureus ATCC 29213; S. aureus ATCC 29213, 0.062 μg/mL): 60%; % @ 32 (in brackets after MIC) (E. coli MG1655): 40%
Cc1c(CN(C)C(=O)/C=C/c2cnc3c(c2)CC(CCN)C(=O)N3)oc2ccccc12.Cl (racemic)	0.062	0.016	8	
Cc1c(CN(C)C(=O)/C=C/c2cnc3c(c2)CC(NCCCN)C(=O)N3)oc2ccccc12.O=CO (stereo not drawn)	0.5	0.250	>32	
Cc1c(CN(C)C(=O)/C=C/c2ccc3c(c2)CCC(N)C(=O)N3)oc2ccccc12 (single isomer, unassigned) [Isomer 2]				MIC A. baumannii AR 0313 (A. baumannii AR 0313): 4 µg/mL (≈ 9.91 µM); MIC K. pneumoniae AR 0066 (K. pneumoniae AR 0066): 4 µg/mL (≈ 9.91 µM); MIC E. coli AR 0085 (E. coli AR 0085): 2 µg/mL (≈ 4.96 µM); MIC K. pneumoniae AR 0113 (K. pneumoniae AR 0113): 8 µg/mL (≈ 19.8 µM); MIC E. coli AR 0048 (E. coli AR 0048): 4 µg/mL (≈ 9.91 µM); MIC A. baumannii AR 0033 (A. baumannii AR 0033): 2 µg/mL (≈ 4.96 µM); MIC A. baumannii AR 0299 (A. baumannii AR 0299): 2 µg/mL (≈ 4.96 µM); MIC K. pneumoniae AR 0560 (K. pneumoniae AR 0560): 4 µg/mL (≈ 9.91 µM); MIC A. baumannii AR 0273 (A. baumannii AR 0273): 4 µg/mL (≈ 9.91 µM); MIC K. pneumoniae BAA 2472 (K. pneumoniae BAA 2472): 4 µg/mL (≈ 9.91 µM)
Cc1c(CN(C)C(=O)/C=C/c2cnc3c(c2)CCC(N)C(=O)N3)oc2ccccc12 (racemic) [drawing 108]	0.031 (≈ 0.0766 µM)	0.016 (≈ 0.0396 µM)	4 (≈ 9.89 µM)	
Cc1c(CN(C)C(=O)C=Cc2cnc3c(c2)CC2(CCC(N)CC2)C(=O)N3)oc2ccccc12 (mixture of isomers) [(±)-8]	0.062	0.016	16	
Cc1c(CN(C)C(=O)/C=C/c2cnc3c(c2)CC(N)C(=O)N3)oc2c(F)cccc12.Cl (stereo not drawn)	0.062	0.016	8	% @ 4 (in brackets after MIC) (E. coli MG1655; E. coli MG1655, 4 μg/mL): 50-80%
Cc1c(CN(C)C(=O)/C=C/c2cnc3c(c2)CCC(N)C(=O)N3)oc2ccccc12 (racemic) [drawing 87]	0.031 (≈ 0.0766 µM)	0.016 (≈ 0.0396 µM)	4 (≈ 9.89 µM)	
Cc1c(CN(C)C(=O)/C=C/c2cnc3c(c2)CC(N)C(=O)N3)oc2ccccc12.Cl (racemic) [reference compound]	0.062	0.03125	4	
Cc1c(CN(C)C(=O)/C=C/c2cnc3c(c2)CCC(CCN)C(=O)N3)oc2ccccc12 (racemic) [(±)-13]	0.125 (≈ 0.289 µM)	0.062 (≈ 0.143 µM)	32 (≈ 74 µM)	
Cc1c(CN(C)C(=O)/C=C/c2cnc3c(c2)CCC(CN)C(=O)N3)oc2ccccc12 (stereo not drawn)				MIC A. baumannii AR 0313 (A. baumannii AR 0313): 32 µg/mL (≈ 76.5 µM); MIC K. pneumoniae AR 0066 (K. pneumoniae AR 0066): 32 µg/mL (≈ 76.5 µM); MIC E. coli AR 0085 (E. coli AR 0085): 16 µg/mL (≈ 38.2 µM); MIC K. pneumoniae AR 0113 (K. pneumoniae AR 0113): 32 µg/mL (≈ 76.5 µM); MIC E. coli AR 0048 (E. coli AR 0048): 16 µg/mL (≈ 38.2 µM); MIC A. baumannii AR 0033 (A. baumannii AR 0033): 16 µg/mL (≈ 38.2 µM); MIC A. baumannii AR 0299 (A. baumannii AR 0299): 32 µg/mL (≈ 76.5 µM); MIC K. pneumoniae AR 0560 (K. pneumoniae AR 0560): 16 µg/mL (≈ 38.2 µM); MIC A. baumannii AR 0273 (A. baumannii AR 0273): 32 µg/mL (≈ 76.5 µM); MIC K. pneumoniae BAA 2472 (K. pneumoniae BAA 2472): 32 µg/mL (≈ 76.5 µM)
Cc1c(CN(C)C(=O)/C=C/c2cnc3c(c2)CCC(N)C(=O)N3)oc2ccccc12 (single isomer, unassigned) [drawing 110]	0.031 (≈ 0.0766 µM)	0.004 to 0.008	2 (≈ 4.94 µM)	% @ 0.016 (in brackets after MIC) (E. coli ΔtolC (JW5503); E. coli ΔTolC, 0.016 μg/mL): 40-95%
